Where two headings read alike, the source gives them in different places.
Legend:
Type in all cases: cell-based
[1] = tested on: A549 (lung adenocarcinoma); assay: Antiproliferative activity (CCK-8 cell viability), A549; details: Homo sapiens, 72 h; for inhibition at 3.3 µM: Compound concentration: 3.3 μM; for inhibition at 10 µM: Compound concentration: 10 μM; for inhibition at 30 µM: Compound concentration: 30 μM
How it was run: (§1)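 Cells were seeded at 2,000-5,000/well (HeLa in MEM, HepG2 and SW480 in DMEM, A549 in F-12K, all with 10% FBS) and treated with compound at 3.3, 10 or 30 μM for 72 h at 37° C. CCK-8 was added for 4 h, absorbance was read at 450 nm, and viability was expressed relative to DMSO-treated wells.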

[2] = tested on: HepG2 (liver cancer); assay: Antiproliferative activity (CCK-8 cell viability), HepG2; details: Homo sapiens, 72 h; for inhibition at 3.3 µM: Compound concentration: 3.3 μM; for inhibition at 10 µM: Compound concentration: 10 μM; for inhibition at 30 µM: Compound concentration: 30 μM
How it was run: as §1

[3] = tested on: HeLa (cervical cancer); assay: Antiproliferative activity (CCK-8 cell viability), HeLa; details: Homo sapiens, 72 h; for inhibition at 3.3 µM: Compound concentration: 3.3 μM; for inhibition at 10 µM: Compound concentration: 10 μM; for inhibition at 30 µM: Compound concentration: 30 μM
How it was run: as §1

[4] = tested on: alpha-smooth muscle actin (α-SMA); assay: Inhibition of TGF-β induced expression of alpha-smooth muscle actin (α-SMA) in CFSC cells (western blot); details: compound at 10 μM, TGF-β (10 ng/mL), 24 hours, band intensity vs TGF-β only
How it was run: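 CFSC hepatic stellate cells in serum-free DMEM treated 24 h at 37 °C with compound at 10 μM plus TGF-β (10 ng/mL). α-SMA measured by Western blot with β-actin, ECL detection, densitometry. Percent inhibition is decrease in band intensity versus TGF-β-only cells.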

[5] = tested on: SW480 (colon cancer); assay: Antiproliferative activity (CCK-8 cell viability), SW480; details: Homo sapiens, 72 h; for inhibition at 3.3 µM: Compound concentration: 3.3 μM; for inhibition at 10 µM: Compound concentration: 10 μM; for inhibition at 30 µM: Compound concentration: 30 μM
How it was run: as §1

[6] = tested on: MDA-MB-231 (breast cancer); assay: Antiproliferative activity (CCK-8 cell viability), MDA-MB-231; details: Homo sapiens, 72 h, read-out: Antiproliferative activity in cancerous cells, MDA-MB-231 (inhibition of cell growth); for inhibition at 3.3 µM: Compound concentration: 3.3 μM; for inhibition at 10 µM: Compound concentration: 10 μM
How it was run: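 In this CCK-8 viability assay, MDA-MB-231 cells maintained in Dulbecco's modified Eagle's medium containing 10% fetal bovine serum were placed in 96-well plates (2,000-5,000 cells/well) and treated with compound for 72 h at 37° C. A 4 h incubation with 10 μL CCK-8 followed, plates were read at 450 nm, and viability was expressed against DMSO vehicle wells across replicates.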

[7] = tested on: B16F10 (malignant melanoma); assay: Antiproliferative activity (CCK-8 cell viability), B16F10; details: Mus musculus, 72 h, read-out: Antiproliferative activity in cancerous cells, B16F10 (inhibition of cell growth); for inhibition at 3.3 µM: B16-F10, Compound concentration: 3.3 μM; for inhibition at 10 µM: B16-F10, Compound concentration: 10 μM
How it was run: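 Attached B16F10 cells in 96-well plates were incubated with compound at 37° C for 72 h, followed by 10 μL CCK-8 reagent per well and a further 4 h incubation. A multi-well plate reader measured absorbance at 450 nm. Percent viability across replicates was calculated against DMSO vehicle-treated cells.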

[8] = tested on: A431 (epidermoid carcinoma); assay: Antiproliferative activity (CCK-8 cell viability), A431; details: Homo sapiens, 72 h, read-out: Antiproliferative activity in cancerous cells, A431 (inhibition of cell growth); for inhibition at 3.3 µM: A-431, Compound concentration: 3.3 μM; for inhibition at 10 µM: A-431, Compound concentration: 10 μM
How it was run: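 Cell viability of compound-treated A431 cells was measured with a Cell Counting Kit-8. Each well received 10 μL of CCK-8 after 72 h of compound exposure, followed by 4 h incubation at 37° C. and a 450 nm plate-reader measurement. Percent viability was calculated relative to DMSO controls across replicates.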

[9] = read-out: Antiproliferative activity in cancerous cells, A549 (inhibition of cell growth)
[10] = read-out: Antiproliferative activity in cancerous cells, HepG2 (inhibition of cell growth)
[11] = read-out: Antiproliferative activity in cancerous cells, HELA (inhibition of cell growth)
[12] = read-out: Antiproliferative activity in cancerous cells, SW480 (inhibition of cell growth)
[13] = read-out: Antiproliferative activity in cancerous cells, HepG2

Structure (SMILES)	inhibition at 3.3 µM [1, 9]	inhibition at 10 µM [1, 9]	inhibition at 3.3 µM [2, 10]	inhibition at 10 µM [2, 10]	inhibition at 3.3 µM [3, 11]	inhibition at 10 µM [3, 11]	inhibition at 10 µM [4]	inhibition at 3.3 µM [5, 12]	inhibition at 10 µM [5, 12]	inhibition at 3.3 µM [6]	inhibition at 10 µM [6]	inhibition at 3.3 µM [7]	inhibition at 10 µM [7]	inhibition at 3.3 µM [8]	inhibition at 10 µM [8]	further results
CC1=C(CC(=O)O)c2c(F)cccc2/C1=C\c1ccc(COc2ccccc2)cc1 [B6, (Z)-2-(4-Fluoro-2-methyl-1-(4-(phenoxymethyl)benzylidene)-1H-inden-3-yl)-acetic acid]	30 to 50%	30 to 50%	< 30%	≥ 50%	< 30%	≥ 50%	> 80%	< 30%	< 30%	≥ 50%	≥ 50%	< 30%	30 to 50%	< 30%	≥ 50%	
O=C(O)CC1=C/C(=C/c2ccc(COc3ccccc3)cc2)c2ccc(F)cc21 [B3, (Z)-2-(5-Fluoro-1-(4-(phenoxymethyl)benzylidene)-1H-inden-3-yl)acetic acid]	30 to 50%	≥ 50%	30 to 50%	30 to 50%	< 30%	< 30%	> 80%	< 30%	30 to 50%	≥ 50%	≥ 50%	≥ 50%	≥ 50%	< 30%	30 to 50%	inhibition at 30 µM ([1]; read-out: Antiproliferative activity in cancerous cells, A549): 30 to 50%; inhibition at 30 µM [2, 13]: < 30%; inhibition at 30 µM ([3]; read-out: Antiproliferative activity in cancerous cells, HELA): < 30%
CC1=C(CC(=O)O)c2ccc(F)c(F)c2/C1=C/c1cccc(Oc2ccccc2)c1 [E4, (E)-2-(6,7-Difluoro-2-methyl-1-(3-phenoxybenzylidene)-1H-inden-3-yl)acetic acid]	< 30%	≥ 50%	< 30%	30 to 50%	30 to 50%	≥ 50%	> 80%	< 30%	< 30%	< 30%	30 to 50%	< 30%	≥ 50%	< 30%	< 30%	inhibition at 30 µM [1, 9]: ≥ 50%; inhibition at 30 µM [2, 10]: ≥ 50%; inhibition at 30 µM [3, 11]: ≥ 50%; inhibition at 30 µM [5, 12]: ≥ 50%; inhibition at 30 µM ([6]; Compound concentration: 30 μM): ≥ 50%; inhibition at 30 µM ([7]; B16-F10, Compound concentration: 30 μM): ≥ 50%; inhibition at 30 µM ([8]; A-431, Compound concentration: 30 μM): ≥ 50%
CCC1=C(CC(=O)O)c2cc(F)ccc2/C1=C\c1cccc(Oc2ccccc2)c1 [C19, (Z)-2-(2-Ethyl-5-fluoro-1-(3-phenoxybenzylidene)-1H-inden-3-yl)acetic acid]	30 to 50%	≥ 50%	< 30%	30 to 50%	30 to 50%	≥ 50%	> 80%	< 30%	< 30%	≥ 50%	≥ 50%	< 30%	≥ 50%	< 30%	≥ 50%	
COc1ccc2c(c1)/C(=C\c1ccc(OCc3ccccc3)cc1)C=C2CC(=O)O [A9, (Z)-2-(1-(4-(Benzyloxy)benzylidene)-6-methoxy-1H-inden-3-yl)acetic acid]	30 to 50%	≥ 50%	< 30%	< 30%	< 30%	30 to 50%	> 80%	30 to 50%	≥ 50%	< 30%	≥ 50%	< 30%	< 30%	30 to 50%	≥ 50%	inhibition at 30 µM [2, 13]: 30 to 50%
O=C(O)CC1=C(Cc2ccc(Oc3ccc(F)cc3)cc2)/C(=C/c2cccc(C(F)(F)F)c2)c2ccc(F)cc21 [A109, (Z)-2-(5-Fluoro-2-(4-(4-fluorophenoxy)benzyl)-1-(3-(trifluoromethyl)-benzylidene)-1H-inden-3-yl)acetic acid]	≥ 50%	≥ 50%	< 30%	< 30%	< 30%	≥ 50%	> 80%	< 30%	< 30%	≥ 50%	≥ 50%	< 30%	≥ 50%	30 to 50%	≥ 50%	
CC1=C(CC(=O)O)c2cc(C)ccc2/C1=C\c1ccc(Oc2ccc(F)cc2)cc1 [C4, (Z)-2-(1-(4-(4-Fluorophenoxy)benzylidene)-2,5-dimethyl-1H-inden-3-yl)acetic acid]	< 30%	30 to 50%	30 to 50%	≥ 50%	< 30%	≥ 50%	> 80%	< 30%	< 30%	< 30%	30 to 50%	< 30%	< 30%	< 30%	30 to 50%	inhibition at 30 µM ([5]; read-out: Antiproliferative activity in cancerous cells, SW480): 30 to 50%
